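Method: 48-hour compound exposure of cells in 96-well plates, five concentrations, linear interpolation of endpoints. At the TGI there is no net growth.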
Columns and labels:
Assay in all cases: DTP human tumour cell line panel, 48 h
[1] = tested on: HCC-2998 colon
[2] = tested on: SK-OV-3 ovarian
[3] = tested on: SK-MEL-5 melanoma
[4] = tested on: HOP-62 NSCLC
[5] = tested on: LOX IMVI melanoma
[6] = tested on: SW-620 colon
[7] = tested on: DMS 273 small cell lung
[8] = tested on: 786-0 renal
[9] = tested on: CCRF-CEM leukemia
[10] = tested on: MOLT-4 leukemia
[11] = tested on: KM20L2 colon
[12] = tested on: UO-31 renal
[13] = tested on: OVCAR-3 ovarian
[14] = tested on: M19-MEL melanoma
[15] = tested on: RXF 393 renal
[16] = tested on: A549 NSCLC
[17] = tested on: COLO 205 colon
[18] = tested on: TK-10 renal
[19] = tested on: M14 melanoma
[20] = tested on: IGROV1 ovarian
[21] = tested on: EKVX NSCLC
[22] = tested on: NCI-H460 lung
[23] = tested on: NCI-H23 lung
[24] = tested on: SK-MEL-2 melanoma
[25] = tested on: OVCAR-8 ovarian
[26] = tested on: KM12 colon
[27] = tested on: NCI-H522 lung
[28] = tested on: HCT-116 colon
[29] = tested on: SF-539 CNS
[30] = tested on: SNB-75 CNS
[31] = tested on: ACHN renal
[32] = tested on: OVCAR-4 ovarian
[33] = tested on: SN12C renal
[34] = tested on: SNB-19 CNS
[35] = tested on: RXF-631 renal
[36] = tested on: SK-MEL-28 melanoma
[37] = tested on: RPMI-8226 leukemia
[38] = tested on: UACC-257 melanoma
[39] = tested on: SF-268 CNS
[40] = tested on: OVCAR-5 ovarian
[41] = tested on: UACC-62 melanoma
[42] = tested on: A498 renal
[43] = tested on: K-562 leukemia
[44] = tested on: DLD-1 colon
[45] = tested on: CAKI-1 renal
[46] = tested on: HT29 colon
[47] = tested on: MALME-3M melanoma
[48] = tested on: U251 CNS
[49] = tested on: SF-295 CNS
[50] = tested on: HCT-15 colon
[51] = tested on: SNB-78 CNS
[52] = tested on: NCI-H226 lung
[53] = tested on: LXFL 529 NSCLC
[54] = tested on: DMS 114 small cell lung
[55] = tested on: XF 498 CNS
[56] = tested on: HL-60(TB) leukemia
[57] = tested on: SR leukemia
[58] = tested on: HOP-92 NSCLC

Molecule `O=C1CCCCCCCCCCC(=O)N2CCOCCOCCN1Cc1cccc(n1)C2` has a TGI [1] of over 100 µM, a TGI [2] of over 100 µM and a TGI [3] of over 100 µM. The TGI [4] was over 100 µM, the TGI [5] was over 100 µM and the TGI [6] was over 100 µM. It also gave a TGI [7] of over 100 µM, a TGI [8] of over 100 µM and a TGI [9] of over 100 µM. It also gave a TGI [10] of over 100 µM, a TGI [11] of over 100 µM and a TGI [12] of over 100 µM. For the same molecule, the TGI [13] was over 100 µM, the TGI [14] was over 100 µM and the TGI [15] was over 100 µM. For the same molecule, the TGI [16] was over 100 µM, the TGI [17] was over 100 µM and the TGI [18] was over 100 µM. It also gave a TGI [19] of over 100 µM, a TGI [20] of over 100 µM and a TGI [21] of over 100 µM. For the same molecule, the TGI [22] was over 100 µM, the TGI [23] was over 100 µM and the TGI [24] was over 100 µM. For the same molecule, the TGI [25] was over 100 µM, the TGI [26] was over 100 µM and the TGI [27] was over 100 µM. It also gave a TGI [28] of over 100 µM, a TGI [29] of over 100 µM and a TGI [30] of over 100 µM. It also gave a TGI [31] of over 100 µM, a TGI [32] of over 100 µM and a TGI [33] of over 100 µM. It also gave a TGI [34] of over 100 µM, a TGI [35] of over 100 µM and a TGI [36] of over 100 µM. For the same molecule, the TGI [37] was over 100 µM, the TGI [38] was over 100 µM and the TGI [39] was over 100 µM. For the same molecule, the TGI [40] was over 100 µM, the TGI [41] was over 100 µM and the TGI [42] was over 100 µM. The TGI [43] was over 100 µM, the TGI [44] was over 100 µM and the TGI [45] was over 100 µM. The TGI [46] was over 100 µM, the TGI [47] was over 100 µM and the TGI [48] was over 100 µM. The TGI [49] was over 100 µM, the TGI [50] was over 100 µM and the TGI [51] was over 100 µM. The TGI [52] was over 100 µM, the TGI [53] was over 100 µM and the TGI [54] was over 100 µM.
Molecule `O=C(NN1C(=O)CS(=O)(=O)C1c1cccc(F)c1)c1ccncc1` (stereo not drawn) has a TGI [1] of over 100 µM, a TGI [2] of over 100 µM and a TGI [55] of over 100 µM. The TGI [3] was over 100 µM, the TGI [4] was over 100 µM and the TGI [5] was over 100 µM. The TGI [56] was over 100 µM, the TGI [6] was over 100 µM and the TGI [7] was over 100 µM. For the same molecule, the TGI [8] was over 100 µM, the TGI [10] was over 100 µM and the TGI [15] was over 100 µM. For the same molecule, the TGI [16] was over 100 µM, the TGI [17] was over 100 µM and the TGI [18] was over 100 µM. It also gave a TGI [19] of over 100 µM, a TGI [22] of over 100 µM and a TGI [24] of over 100 µM. The TGI [26] was over 100 µM, the TGI [27] was over 100 µM and the TGI [28] was over 100 µM. It also gave a TGI [30] of over 100 µM, a TGI [31] of over 100 µM and a TGI [32] of over 100 µM. The TGI [33] was over 100 µM, the TGI [34] was over 100 µM and the TGI [35] was over 100 µM. The TGI [36] was over 100 µM, the TGI [37] was over 100 µM and the TGI [57] was over 100 µM. It also gave a TGI [38] of over 100 µM, a TGI [39] of over 100 µM and a TGI [40] of over 100 µM. The TGI [42] was over 100 µM, the TGI [44] was over 100 µM and the TGI [45] was over 100 µM. It also gave a TGI [46] of over 100 µM, a TGI [47] of over 100 µM and a TGI [49] of over 100 µM. It also gave a TGI [50] of over 100 µM, a TGI [52] of over 100 µM and a TGI [58] of over 100 µM. It also gave a TGI [53] of over 100 µM and a TGI [54] of over 100 µM.
In the case of `Cc1cc(N(CCC#N)CCC#N)ccc1/C=C\C(=O)Nc1ccccc1`, the TGI [1] is reported as 80.5 µM, the TGI [2] is reported as over 100 µM and the TGI [55] is reported as over 100 µM. It also gave a TGI [3] of over 100 µM, a TGI [4] of over 100 µM and a TGI [5] of over 100 µM. The TGI [56] was over 100 µM, the TGI [6] was over 100 µM and the TGI [7] was over 100 µM. It also gave a TGI [8] of over 100 µM, a TGI [9] of over 100 µM and a TGI [10] of over 100 µM. For the same molecule, the TGI [11] was over 100 µM, the TGI [12] was over 100 µM and the TGI [13] was over 100 µM. It also gave a TGI [14] of over 100 µM, a TGI [16] of over 100 µM and a TGI [17] of over 100 µM. It also gave a TGI [18] of over 100 µM, a TGI [19] of over 100 µM and a TGI [20] of over 100 µM. It also gave a TGI [21] of over 100 µM, a TGI [22] of over 100 µM and a TGI [23] of over 100 µM. For the same molecule, the TGI [24] was over 100 µM, the TGI [25] was over 100 µM and the TGI [26] was over 100 µM. The TGI [27] was over 100 µM, the TGI [28] was over 100 µM and the TGI [29] was over 100 µM. The TGI [30] was over 100 µM, the TGI [31] was over 100 µM and the TGI [32] was over 100 µM. It also gave a TGI [33] of over 100 µM, a TGI [34] of over 100 µM and a TGI [35] of over 100 µM. It also gave a TGI [36] of over 100 µM, a TGI [37] of over 100 µM and a TGI [38] of over 100 µM. For the same molecule, the TGI [39] was over 100 µM, the TGI [40] was over 100 µM and the TGI [41] was over 100 µM. For the same molecule, the TGI [42] was over 100 µM, the TGI [43] was over 100 µM and the TGI [44] was over 100 µM. For the same molecule, the TGI [45] was over 100 µM, the TGI [46] was over 100 µM and the TGI [47] was over 100 µM. For the same molecule, the TGI [48] was over 100 µM, the TGI [49] was over 100 µM and the TGI [50] was over 100 µM. The TGI [52] was over 100 µM, the TGI [58] was over 100 µM and the TGI [53] was over 100 µM. The TGI [54] was over 100 µM.

Source: PubChem BioAssay (NCI)
